Data published in patent US11591309B2, “Manufacturing method for and insecticidal compositions comprising thiocyclam hydrochloride” (Arysta L[…] America, LLC, priority 2016, dated 2023).

Key:
Format in all cases: in vivo
[1] = tested on: Soybean looper, Chrysodeixis includens—3rd larval stage; test: Soybean looper 3rd larval stage bioassay by diet surface incorporation, mortality
Description: Soybean looper, Chrysodeixis includens—3rd larval stage • Bioassay by diet surface incorporation • Mortality assessment 3 days after treatment • a.i. refers to active ingredient
(§1) LC stands for “Lethal Concentration”. LC values refer to the concentration of a chemical required to kill a certain proportion of a population of pests. The concentration of the chemical that kills 50 percent of the pests during the observation period is the LC50 value and a concentration that kills 90 percent of a population is LC90.

[2] = tested on: White flies, Trialeurodes vaporarium—larvae; test: White fly larvae on bean, boom sprayer application (IRAC no 015 adapted), mortality; conditions: for LD50 / LD90: boom sprayer
Description: White flies, Trialeurodes vaporarium—larvae • Study based on IRAC no 015 methods, stage and application method adapted • Plant: bean • Application: On the petri dish with larvae with a boom sprayer apparatus • Assessment of mortality at 7, 9 and 14 days after application • a.i. refers to active ingredient
(§2) LD stands for “Lethal Dose”. LD50 is the amount of an ingested substance that kills 50 percent of a test sample and […] is the lethal dose that kills 90 percent of the test sample.

[3] = tested on: Aphids Myzus persicae—larvae; test: Aphid larvae on radish, boom sprayer application (IRAC no 019 adapted), mortality
Description: Aphids Myzus persicae—larvae • Study based on IRAC no 019 methods, application method adapted • Plant: radish • Application on petri dish with larvae with a boom sprayer apparatus • Assessment of mortality 3 and 4 days after application • a.i. refers to active ingredient
as §2

[4] = tested on: Codling moth, Cydiapomonella—neonate larvae; test: Codling moth neonate larvae bioassay by diet incorporation, mortality; conditions: for LC50: Cydia pomonella, 48 h; for LC50 / LC90: mortality 2 days after treatment (D + 2), diet incorporation
Description: Codling moth, Cydiapomonella—neonate larvae • Bioassay by diet incorporation • Mortality assessment 2 days after treatment • a.i. refers to active ingredient
as §1

[5] = mortality 3 days after treatment (D + 3), diet surface incorporation

SMILES | LC90 [1, 5] | LD50 ([2]; D +7, bean) [g a.i./ha] | LD90 ([2]; D +7, bean) | LD50 ([2]; D +9, bean) [g a.i./ha] | LD90 ([2]; D +9, bean) | LD50 ([2]; D +14, bean) [g a.i./ha] | LD90 ([2]; D +14, bean) | LD50 ([3]; D +3, radish) [g a.i./ha] | LD90 ([3]; D +3, radish) [g a.i./ha] | LD50 ([3]; D +4, radish) [g a.i./ha] | LD90 ([3]; D +4, radish) [g a.i./ha] | LC50 [4] [µg/mL] | LC90 [4] | also measured
CN(C)C(CSC(N)=O)CSC(N)=O [Cartap, S, S-[2-(dimethylamino)-1,3-propanediyl] dicarbamothioate, reference compound] | 908,897 μg of a.i./ml of diet | 213.7 | 2.3 × 10^6 g a.i./ha | 15.6 | 4,566.3 g a.i./ha | 10.4 | 910.4 g a.i./ha | <18.18 | 36.70 | <18.18 | 16 | 10.1 | 104.80 μg of a.i./ml of diet | 
CN(C)C1CSSSC1.Cl [Thiocyclam HCl, N,N-dimethyl-1,2,3-trithian-5-ylamine hydrochloride] | 251,759 μg of a.i./ml of diet | 2.22 | 1,899 g a.i./ha | 2.23 | 4,905 g a.i./ha | 0.82 | 7,910 g a.i./ha | 12.04 | 30.51 | 7.66 | 27.07 | 2.57 | 10.80 μg of a.i./ml of diet | LC50 ([1]; 72 h, mortality 3 days after treatment (D + 3), diet surface incorporation): 8990 µg/mL; LC90 compared to cartap ([1]; example 2, comparison in words): more than three times lower; LC90 compared to thiocyclam oxalate ([1]; example 2, comparison in words): orders of magnitude smaller; times less at LC50 than cartap ([1]; example 2, ratio versus cartap): approximately 6 times; times less at LC50 than thiocyclam oxalate ([1]; example 2, ratio versus thiocyclam oxalate): approximately 20 times; LD90 compared to cartap ([2]; example 4, days 7 and 9): lower application concentration compared to cartap; LC50 and LC90 compared to thiocyclam oxalate ([4]; example 1, comparison in words): significantly lower concentrations than thiocyclam oxalate; times less at LC50 compared to cartap ([4]; example 1, ratio versus cartap): approximately 4 times; times less at LC90 compared to cartap ([4]; example 1, ratio versus cartap): approximately 9 times
